Measurements reported in ChEMBL document CHEMBL3046138, “5-Aryl-1,3,4-oxadiazole-2-thiols as a New Series of trans-Cinnamate 4-Hydroxylase Inhibitors” (J Pestic Sci, 2004).

These compounds were tested against T1, Trans-cinnamate 4-monooxygenase (Populus kitakamiensis) (UniProt Q43054) (assay: Inhibition of Populus sieboldii x Populus grandidentata CYP73A1 at 100 uM).
T1 sequence (whole entry): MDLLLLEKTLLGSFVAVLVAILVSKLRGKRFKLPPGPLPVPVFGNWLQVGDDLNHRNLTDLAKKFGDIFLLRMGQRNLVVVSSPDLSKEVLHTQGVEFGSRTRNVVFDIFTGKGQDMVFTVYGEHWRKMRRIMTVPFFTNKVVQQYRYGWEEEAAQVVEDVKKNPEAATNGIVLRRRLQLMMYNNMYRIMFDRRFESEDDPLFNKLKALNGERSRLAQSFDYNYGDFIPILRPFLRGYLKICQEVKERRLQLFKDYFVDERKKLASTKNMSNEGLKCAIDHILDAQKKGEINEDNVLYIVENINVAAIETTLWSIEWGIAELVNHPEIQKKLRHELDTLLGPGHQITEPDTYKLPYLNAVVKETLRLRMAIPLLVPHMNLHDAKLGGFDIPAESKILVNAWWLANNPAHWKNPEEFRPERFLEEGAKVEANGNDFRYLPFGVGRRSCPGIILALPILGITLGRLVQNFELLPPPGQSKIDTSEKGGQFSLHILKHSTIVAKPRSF

Structure (SMILES)	inhibition [%]
O=C(O)c1ccc2c(c1)OCO2 [PIPERONYLIC ACID]	58

What follows are compounds tested against T2, Trans-cinnamate 4-monooxygenase (Helianthus tuberosus, UniProt Q04468) (assay: Inhibition of Helianthus tuberosus CYP73A1).
T2 sequence (Q04468 whole entry): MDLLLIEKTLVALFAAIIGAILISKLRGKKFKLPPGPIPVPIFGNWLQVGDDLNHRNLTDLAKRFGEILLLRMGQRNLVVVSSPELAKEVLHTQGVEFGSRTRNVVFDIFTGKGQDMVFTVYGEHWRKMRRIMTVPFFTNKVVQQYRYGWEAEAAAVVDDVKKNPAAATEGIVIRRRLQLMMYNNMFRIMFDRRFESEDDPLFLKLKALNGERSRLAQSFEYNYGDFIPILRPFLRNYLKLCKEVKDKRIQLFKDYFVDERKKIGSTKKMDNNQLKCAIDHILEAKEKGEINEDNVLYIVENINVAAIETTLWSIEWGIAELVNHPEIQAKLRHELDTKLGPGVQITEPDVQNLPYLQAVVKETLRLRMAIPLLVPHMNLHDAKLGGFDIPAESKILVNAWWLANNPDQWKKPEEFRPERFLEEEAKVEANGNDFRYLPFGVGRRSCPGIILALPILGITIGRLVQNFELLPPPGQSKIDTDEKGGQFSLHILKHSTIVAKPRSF

Structure (SMILES)	IC50 [nM]
O=C(O)c1c(O)ccc2ccccc12	890

The compounds below were run against T3, Trans-cinnamate 4-monooxygenase (Populus kitakamiensis, UniProt Q43054) (assay: Inhibition of Populus sieboldii x Populus grandidentata trans-cinnamate 4-hydroxylase expressed in Saccharomyces cerevisiae BJ2168 assessed as inhibition of hydroxylation of cinnamic acid after 60 min).
T3 sequence (Q43054 whole entry): T1 sequence (whole entry)

Structure (SMILES)	IC50 [nM]
S=c1[nH]nc(-c2cccc3ccccc23)o1	> 100000
Cc1ccc(-c2nnc(S)o2)cc1	50000
COc1cccc(-c2nnc(S)o2)c1	6100
Cc1ccccc1-c1nnc(S)o1	500
Sc1nnc(/C=C/c2ccccc2)o1	> 100000
S=c1[nH]nc(-c2ccc(Cl)cc2)o1	23000
Sc1nnc(-c2ccccc2Cl)o1	680
Cc1cccc(-c2nnc(S)o2)c1	1100
Sc1nnc(-c2cccs2)o1	6200
Sc1nnc(-c2ccccn2)o1	580
Sc1nnc(-c2ccc3ccccc3c2)o1	> 100000
FC(F)(F)c1cccc(-c2nnc(S)o2)c1	> 100000
Sc1nnc(-c2ccco2)o1	5900
Sc1nnc(-c2cc(Cl)ccc2Cl)o1	2000
O=C(O)c1c(O)ccc2ccccc12	880
Fc1ccc(-c2nnc(S)o2)cc1	3300
S=c1[nH]nc(-c2ccccc2)o1	800
O=c1[nH]nc(-c2ccccc2)o1	6700
Sc1nnc(-c2ccccc2Br)o1	980
Sc1nnc(-c2ccncc2)o1	15000
Sc1nnc(-c2cccnc2)o1	650
O=C(O)c1ccc2c(c1)OCO2 [PIPERONYLIC ACID]	> 100000
Sc1nnc(-c2cc(Cl)cc(Cl)c2)o1	> 100000
S=c1[nH]nc(C2CCCCC2)o1	> 100000
CSc1nnc(-c2ccccc2)o1	> 100000
Sc1nnc(-c2cccc(Cl)c2)o1	210
Fc1ccccc1-c1nnc(S)o1	190
c1ccc(-c2nnco2)cc1	> 100000
Sc1nnc(-c2cccc(Br)c2)o1	420
Fc1cccc(-c2nnc(S)o2)c1	130
